{"source": "patent US4496568A", "about": "“Antiinflammatory thieno [2,3-c]pyridine derivatives” (PACOR, priority 1977, dated 1985)", "assay_type_in_all_cases": "in vivo", "key": {"[1]": {"system": "localized carrageenin-induced edema", "assay": "Localized carrageenin-induced edema (anti-inflammatory activity)", "conditions": "rats, 100 mg/kg orally 1 hour before, at, and 1 and 2.5 hours after carrageenin, vs reference group", "protocol": "(§1) The pharmacological investigation concerned the anti-inflammatory activity of the compounds of this invention. This activity was investigated according to 2 methods:\n(a) Method of localized carrageenin-induced edema\nAn 1% (0.1 ml) carrageenin solution is injected in the metatarsal flexor muscles of the right hind limb of rats at time 0. The animals of the treated group are additionally administered orally 100 mg/kg body weight of the test derivative, respectively 1 hour prior to injection of the phlogogenic agent, simultaneously with said injection, and then 1 and 2.5 hours thereafter. The determinations effected with a ROCH micrometer at times 0, 1 hour 2 hrs, 3 hrs and 5 hrs after carrageenin administration provide a measure, as a function of time, of the percent anti-inflammatoryactivity, with respect to the reference group."}, "[2]": {"system": "ovalbumin-induced systemic edema", "assay": "Ovalbumin-induced systemic edema (anti-inflammatory activity)", "conditions": "rats, 100 mg/kg orally 1 hour before and simultaneously with ovalbumin, vs reference group", "protocol": "as §1\n(b) Method of the ovalbumin-induced systemic edema\nA simultaneous intraperitoneal injection of 1 ml ovalbumin and 0,5 ml of 1% aqueous Evans blue solution is effected in rats. On the other hand, the animals of the treated group are orally administered 100 mg/kg body weight of the test derivative, 1 hour prior to ovalbumin administration and simultaneously therewith. The intensity of the phenomenon thus induced is rated according to a scale from 1 to 5, according to the progress of the inflammatory syndrome. Thus are determined, as a function of time, the mean intensity of the edema and the percent decrease of the edema reaction with respect to the reference group."}, "mice": {"system": "mice", "assay": "Acute intravenous toxicity LD50"}}}
{"smiles": "Cc1ncc(O)c2ccsc12", "note": "[Derivative No. 3, 4-hydroxy-7-methyl-thieno[2,3-c]pyridine]", "values": [{"measurement": "Percent anti-inflammatory activity after 1 hr", "setting": "[1]", "result": 42, "unit": "%"}, {"measurement": "Percent anti-inflammatory activity after 2 hrs", "setting": "[1]", "result": 48, "unit": "%"}, {"measurement": "Percent anti-inflammatory activity after 3 hrs", "setting": "[1]", "result": 52, "unit": "%"}, {"measurement": "Percent anti-inflammatory activity after 5 hrs", "setting": "[1]", "result": 51, "unit": "%"}, {"measurement": "Percent anti-inflammatory activity after 2 hrs", "setting": "[2]", "result": 53, "unit": "%"}, {"measurement": "Percent anti-inflammatory activity after 3 hrs", "setting": "[2]", "result": 61, "unit": "%"}]}
{"smiles": "Oc1cncc2sccc12", "note": "[Derivative No. 2, 4-hydroxy-thieno[2,3-c]pyridine]", "values": [{"measurement": "Percent anti-inflammatory activity after 1 hr", "setting": "[1]", "result": 40, "unit": "%"}, {"measurement": "Percent anti-inflammatory activity after 2 hrs", "setting": "[1]", "result": 45, "unit": "%"}, {"measurement": "Percent anti-inflammatory activity after 3 hrs", "setting": "[1]", "result": 49, "unit": "%"}, {"measurement": "Percent anti-inflammatory activity after 5 hrs", "setting": "[1]", "result": 49, "unit": "%"}, {"measurement": "Percent anti-inflammatory activity after 2 hrs", "setting": "[2]", "result": 49, "unit": "%"}, {"measurement": "Percent anti-inflammatory activity after 3 hrs", "setting": "[2]", "result": 58, "unit": "%"}]}
{"smiles": "Oc1cncc2ccsc12", "note": "[Derivative No. 1, 7-hydroxy-thieno[3,2-c]pyridine]", "values": [{"measurement": "Percent anti-inflammatory activity after 1 hr", "setting": "[1]", "result": 43, "unit": "%"}, {"measurement": "Percent anti-inflammatory activity after 2 hrs", "setting": "[1]", "result": 46, "unit": "%"}, {"measurement": "Percent anti-inflammatory activity after 3 hrs", "setting": "[1]", "result": 48, "unit": "%"}, {"measurement": "Percent anti-inflammatory activity after 5 hrs", "setting": "[1]", "result": 49, "unit": "%"}, {"measurement": "LD50", "setting": "mice", "result": 131, "unit": "mg"}, {"measurement": "Percent anti-inflammatory activity after 2 hrs", "setting": "[2]", "result": 44, "unit": "%"}, {"measurement": "Percent anti-inflammatory activity after 3 hrs", "setting": "[2]", "result": 50, "unit": "%"}]}
{"smiles": "Cc1cc2c(O)cncc2s1", "note": "[Derivative No. 4, 4-hydroxy-2-methyl-thieno[2,3-c]pyridine]", "values": [{"measurement": "Percent anti-inflammatory activity after 1 hr", "setting": "[1]", "result": 45, "unit": "%"}, {"measurement": "Percent anti-inflammatory activity after 2 hrs", "setting": "[1]", "result": 49, "unit": "%"}, {"measurement": "Percent anti-inflammatory activity after 3 hrs", "setting": "[1]", "result": 50, "unit": "%"}, {"measurement": "Percent anti-inflammatory activity after 5 hrs", "setting": "[1]", "result": 52, "unit": "%"}, {"measurement": "Percent anti-inflammatory activity after 2 hrs", "setting": "[2]", "result": 48, "unit": "%"}, {"measurement": "Percent anti-inflammatory activity after 3 hrs", "setting": "[2]", "result": 60, "unit": "%"}]}
